Results reported in ChEMBL document CHEMBL5725862, “PRMT5 inhibitors and uses thereof” (2018).

Assay: PRMT5 Biochemical Assay: The assays were all performed in a buffer consisting of 20 mM Bicine (pH=7.6), 1 mM TCEP, 0.005% BSG, and 0.002% Tween20, prepared on the day of use. Compounds in 100% DMSO (1 ul) were spotted into a polypropylene 384-well V-bottom plates (Greiner) using a Platemate Plus outfitted with a 384-channel head (Thermo Scientific). DMSO (1 ul) was added to Columns 11, 12, 23, 24, rows A-H for the maximum signal control and 1 ul of SAH, a known product and inhibitor of PRMT5/MEP50, was added to columns 11, 12, 23, 24, rows I-P for the minimum signal control. A cocktail (40 ul) containing the PRMT5/MEP50 enzyme and the peptide was added by Multidrop Combi (Thermo-Fisher). The compounds were allowed to incubate with PRMT5/MEP50 for 30 min at 25 degrees Celsius, then a cocktail (10 ul) containing 3H-SAM was added to initiate the reaction (final volume=51 ul). The final concentrations of the components were as follows: PRMT5/MEP50 was 4 nM, 3H-SAM was 75 nM, peptide was 40 nM, SAH in the minimum signal control wells was 100 uM, and the DMSO concentration was 1%. The assays were stopped by the addition of non-radioactive SAM (10 ul) to a final concentration of 600 uM, which dilutes the 3H-SAM to a level where its incorporation into the peptide substrate is no longer detectable. […]

C[C@H](Oc1cccc2cccnc12)C(=O)NC[C@@H](O)CN1Cc2ccccc2C1
IC50: in the range around 550 nM
